{
  "source": "paper PMC12579247",
  "about": "“Tanshinone IIA inhibits heat-induced growth of p53-mutant Huh-7 hepatocellular carcinoma by modulating osmotic homeostasis and glycolysis through targeting ALDH7A1” (Cell Death Discovery, 2025)",
  "target": "T1, ALDH7A1 (Homo sapiens, UniProt P49419)",
  "T1 construct": "endogenous protein in heat-pretreated (44 °C) Huh-7 cells; CETSA on total protein extract, detected by Western blot",
  "T1 sequence (P49419 27-539)": "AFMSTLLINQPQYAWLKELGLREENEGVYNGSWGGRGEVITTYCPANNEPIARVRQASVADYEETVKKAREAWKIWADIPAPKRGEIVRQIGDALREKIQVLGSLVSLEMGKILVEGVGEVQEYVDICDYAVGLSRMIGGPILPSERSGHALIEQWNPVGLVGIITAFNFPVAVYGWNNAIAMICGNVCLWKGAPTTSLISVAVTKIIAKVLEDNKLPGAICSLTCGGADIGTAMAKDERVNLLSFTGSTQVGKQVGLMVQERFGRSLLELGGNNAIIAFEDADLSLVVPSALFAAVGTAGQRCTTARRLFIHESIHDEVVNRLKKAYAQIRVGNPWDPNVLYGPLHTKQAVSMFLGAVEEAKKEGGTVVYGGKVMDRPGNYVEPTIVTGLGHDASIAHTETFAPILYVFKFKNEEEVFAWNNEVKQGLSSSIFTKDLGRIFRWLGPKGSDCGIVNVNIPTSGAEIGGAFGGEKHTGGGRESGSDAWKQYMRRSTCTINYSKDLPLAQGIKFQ",
  "assay": "CETSA, Western blot",
  "format": "cell-based",
  "conditions": "0, 4, 8 µM for 24 h in cells, extract then heated at 63 °C for 5 min; heat-pretreated Huh-7 cells",
  "data": [
    {"smiles": "Cc1coc2c1C(=O)C(=O)c1c-2ccc2c1CCCC2(C)C", "note": "[Tan IIA]", "values": [
      {"measurement": "CETSA, Western blot", "value": "CETSA results showed that the binding of Tan IIA to ALDH7A1 was concentration-dependent"}
    ]}
  ]
}
